According to patent US6355799B1, “Substituted benzene compounds, process for their preparation, and herbicidal and defoliant compositions containing them” (ISK Americas Incorporated, priority 1997, dated 2002):

How the values were obtained:
Type in all cases: in vivo
[1] = test system: upland rice (Oryza sp., var. Tebonnet, RICE); assay: Pre-emerge test, crop safety; conditions: rated 14 days after application, 0 = no damage, 100 = complete death
In short: (§1)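 Plants grown in 10 cm pots of sandy loam mix received acetone-dissolved compounds through a moving flat-fan nozzle. Doses ranged from 15 to 1000 g ai/ha. Pre-emerge pots were seeded one day earlier, post-emerge pots 8–21 days earlier. Fourteen days on, each pot was graded 0–100 for damage.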

[2] = test system: field corn (Zea mays L., var. Dekalb 535, CORN); assay: Pre-emerge test, crop safety; conditions: rated 14 days after application, 0 = no damage, 100 = complete death
In short: as §1

[3] = test system: redroot pigweed (Amaranthus retroflexus, AMARE); assay: Pre-emerge test, greenhouse herbicide activity screening; conditions: rated 14 days after application, 0 = no damage, 100 = complete death
In short: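 Compounds in acetone were track-sprayed at 187 l/ha, 15–1000 g ai/ha, onto sandy loam pots. Pre-emerge seeds were sown one day before spraying, with surface watering afterwards. Post-emerge plants were at the 2–3 leaf stage and sprayed with 0.25% v/v non-ionic surfactant. Injury was rated 0–100 at 14 days.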

[4] = test system: upland rice (Oryza sp., var. Tebonnet, RICE); assay: Post-emerge test, crop safety; conditions: post-emerge, 14 days after application, rating scale 0-100
In short: (§2)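 Compounds in acetone were track-sprayed at 15-1000 g ai/ha (187 l/ha) on sandy loam pots: pre-emerge one day after seeding, post-emerge at 2-3 leaf stage with 0.25% v/v non-ionic surfactant. Phytotoxicity was rated 14 days later on a 0 (no damage) to 100 (complete death) scale.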

[5] = test system: field corn (Zea mays L., var. Dekalb 535, CORN); assay: Post-emerge test, crop safety; conditions: post-emerge, 14 days after application, rating scale 0-100
In short: as §2

[6] = test system: barnyardgrass (Echinochloa crus-galli, ECHCG); assay: Pre-emerge test, greenhouse herbicide activity screening; conditions: rated 14 days after application, 0 = no damage, 100 = complete death
In short: as §2

[7] = test system: johnsongrass (Sorghum halepense, SORHA); assay: as above; conditions: rated 14 days after application, 0 = no damage, 100 = complete death
In short: as §2

[8] = test system: lambsquarters (Chenopodium album, CHEAL); assay: as above; conditions: rated 14 days after application, 0 = no damage, 100 = complete death
In short: as §2

[9] = test system: sicklepod (Cassia obtusifolia, CASOB); assay: as above; conditions: rated 14 days after application, 0 = no damage, 100 = complete death
In short: as §2

[10] = test system: large crabgrass (Digitaria sanguinalis, DIGSA); assay: as above; conditions: rated 14 days after application, 0 = no damage, 100 = complete death
In short: as §2

[11] = test system: ivyleaf morningglory (Ipomoea hederacea, IPOHE); assay: as above; conditions: rated 14 days after application, 0 = no damage, 100 = complete death
In short: as §2

[12] = test system: common ragweed (Ambrosia artemisizfolia L., AMBEL); assay: as above; conditions: rated 14 days after application, 0 = no damage, 100 = complete death
In short: as §2

[13] = test system: green foxtail (Setaria viridis, SETVI); assay: as above; conditions: rated 14 days after application, 0 = no damage, 100 = complete death
In short: as §2

[14] = test system: velvetleaf (Abutilon theophrasti, ABUTH); assay: as above; conditions: rated 14 days after application, 0 = no damage, 100 = complete death
In short: as §2

[15] = test system: redroot pigweed (Amaranthus retroflexus, AMARE); assay: Post-emerge test, greenhouse herbicide activity screening; conditions: post-emerge, 14 days after application, rating scale 0-100
In short: as §2

[16] = test system: barnyardgrass (Echinochloa crus-galli, ECHCG); assay: as above; conditions: post-emerge, 14 days after application, rating scale 0-100
In short: as §2

[17] = test system: johnsongrass (Sorghum halepense, SORHA); assay: as above; conditions: post-emerge, 14 days after application, rating scale 0-100
In short: as §2

[18] = test system: lambsquarters (Chenopodium album, CHEAL); assay: as above; conditions: post-emerge, 14 days after application, rating scale 0-100
In short: as §2

[19] = test system: sicklepod (Cassia obtusifolia, CASOB); assay: as above; conditions: post-emerge, 14 days after application, rating scale 0-100
In short: as §2

[20] = test system: large crabgrass (Digitaria sanguinalis, DIGSA); assay: as above; conditions: post-emerge, 14 days after application, rating scale 0-100
In short: as §2

[21] = test system: ivyleaf morningglory (Ipomoea hederacea, IPOHE); assay: as above; conditions: post-emerge, 14 days after application, rating scale 0-100
In short: as §2

[22] = test system: common ragweed (Ambrosia artemisizfolia L., AMBEL); assay: as above; conditions: post-emerge, 14 days after application, rating scale 0-100
In short: as §2

[23] = test system: velvetleaf (Abutilon theophrasti, ABUTH); assay: as above; conditions: post-emerge, 14 days after application, rating scale 0-100
In short: as §2

SMILES: COc1c(Cl)cc(F)c(-n2c(=O)cc(C(F)(F)F)n(C)c2=O)c1NC(=O)c1cccnc1 [2-98]
- Pre-emerge phytotoxicity rating (0-100), crop damage, RICE ([1]; 63 g ai/ha): 60
- Pre-emerge phytotoxicity rating (0-100), crop damage, RICE ([1]; 250 g ai/ha): 90
- Pre-emerge phytotoxicity rating (0-100), crop damage, CORN ([2]; 63 g ai/ha): 70
- Pre-emerge phytotoxicity rating (0-100), crop damage, CORN ([2]; 250 g ai/ha): 90
- Pre-emerge Herbicidal Activity, phytotoxicity rating (0-100), AMARE ([3]; 63 g ai/ha): 100
- Pre-emerge Herbicidal Activity, phytotoxicity rating (0-100), AMARE ([3]; 250 g ai/ha): 100
- phytotoxicity rating RICE ([4]; 63 g ai/ha): 40
- phytotoxicity rating RICE ([4]; 250 g ai/ha): 90
- phytotoxicity rating CORN ([5]; 63 g ai/ha): 20
- phytotoxicity rating CORN ([5]; 250 g ai/ha): 90
- Pre-emerge Herbicidal Activity, phytotoxicity rating (0-100), ECHCG ([6]; 63 g ai/ha): 30
- Pre-emerge Herbicidal Activity, phytotoxicity rating (0-100), ECHCG ([6]; 250 g ai/ha): 100
- Pre-emerge Herbicidal Activity, phytotoxicity rating (0-100), SORHA ([7]; 63 g ai/ha): 30
- Pre-emerge Herbicidal Activity, phytotoxicity rating (0-100), SORHA ([7]; 250 g ai/ha): 95
- Pre-emerge Herbicidal Activity, phytotoxicity rating (0-100), CHEAL ([8]; 63 g ai/ha): 100
- Pre-emerge Herbicidal Activity, phytotoxicity rating (0-100), CHEAL ([8]; 250 g ai/ha): 100
- Pre-emerge Herbicidal Activity, phytotoxicity rating (0-100), CASOB ([9]; 63 g ai/ha): 100
- Pre-emerge Herbicidal Activity, phytotoxicity rating (0-100), CASOB ([9]; 250 g ai/ha): 100
- Pre-emerge Herbicidal Activity, phytotoxicity rating (0-100), DIGSA ([10]; 63 g ai/ha): 40
- Pre-emerge Herbicidal Activity, phytotoxicity rating (0-100), DIGSA ([10]; 250 g ai/ha): 95
- Pre-emerge Herbicidal Activity, phytotoxicity rating (0-100), IPOHE ([11]; 63 g ai/ha): 100
- Pre-emerge Herbicidal Activity, phytotoxicity rating (0-100), IPOHE ([11]; 250 g ai/ha): 100
- Pre-emerge Herbicidal Activity, phytotoxicity rating (0-100), AMBEL ([12]; 63 g ai/ha): 100
- Pre-emerge Herbicidal Activity, phytotoxicity rating (0-100), AMBEL ([12]; 250 g ai/ha): 100
- Pre-emerge Herbicidal Activity, phytotoxicity rating (0-100), SETVI ([13]; 63 g ai/ha): 80
- Pre-emerge Herbicidal Activity, phytotoxicity rating (0-100), SETVI ([13]; 250 g ai/ha): 100
- Pre-emerge Herbicidal Activity, phytotoxicity rating (0-100), ABUTH ([14]; 63 g ai/ha): 100
- Pre-emerge Herbicidal Activity, phytotoxicity rating (0-100), ABUTH ([14]; 250 g ai/ha): 100
- phytotoxicity rating AMARE ([15]; 63 g ai/ha): 75
- phytotoxicity rating AMARE ([15]; 250 g ai/ha): 100
- phytotoxicity rating ECHCG ([16]; 63 g ai/ha): 0
- phytotoxicity rating ECHCG ([16]; 250 g ai/ha): 20
- phytotoxicity rating SORHA ([17]; 63 g ai/ha): 0
- phytotoxicity rating SORHA ([17]; 250 g ai/ha): 90
- phytotoxicity rating CHEAL ([18]; 63 g ai/ha): 70
- phytotoxicity rating CHEAL ([18]; 250 g ai/ha): 90
- phytotoxicity rating CASOB ([19]; 63 g ai/ha): 100
- phytotoxicity rating CASOB ([19]; 250 g ai/ha): 100
- phytotoxicity rating DIGSA ([20]; 63 g ai/ha): 0
- phytotoxicity rating DIGSA ([20]; 250 g ai/ha): 50
- phytotoxicity rating IPOHE ([21]; 63 g ai/ha): 100
- phytotoxicity rating IPOHE ([21]; 250 g ai/ha): 100
- phytotoxicity rating AMBEL ([22]; 63 g ai/ha): 80
- phytotoxicity rating AMBEL ([22]; 250 g ai/ha): 100
- phytotoxicity rating ABUTH ([23]; 63 g ai/ha): 100
- phytotoxicity rating ABUTH ([23]; 250 g ai/ha): 100
